The numbers were not newly measured in patent US20090263333A1, “Pharmaceutical compounds and compositions” (Cipla Limited, priority 2004, published 2009), which cites them from elsewhere.

The conditions of the series: dose comparison with racemic salbutamol.

On to `CC(C)(C)NC[C@H](O)c1ccc(O)c(CO)c1` [Levosalbutamol, levosalbutamol], for which the “efficacy relative to racemic salbutamol” value is reported as “comparable efficacy at nearly one-fourth the dose of racemic salbutamol”.
